One experiment relates to E. coli. Put plainly: MIC of triclosan for inoculum and for colonies growing inside zones or under discs. The class given is cell-based. Particulars: Escherichia coli. As for the experimental part:
(§1) Wound guards (e.g. for protection of catheter or external fixation pin exit sites) in the form of discs of silicone elastomer of 2.5 cm diameter and 3.5 mm thickness were impregnated with either rifampin+clindamycin (A), rifampin+clindamycin+triclosan (B) or triclosan alone (C). The discs were then sterilised by autoclaving, and placed on agar plates seeded with the gram-positive bacteria Staphylococcus aureus. After overnight incubation, inhibition zones were measured and the discs were transferred to a further seeded plate, and this process repeated until no zones were seen. Any bacterial colonies growing inside the inhibition zones or under the discs were tested for minimal inhibitory concentration (MIC) to triclosan and their identities with the original inoculum determined by pulse field gel electrophoresis. The results were as follows:
The simulation was repeated using plates seeded with the gram-negative bacterium E coli.

The subject of a further experiment is S. aureus. The experiment is described as above. Particulars: Staphylococcus aureus. The class given is cell-based. As for the experimental part:
as §1, with “electrophoresis.” for “electrophoresis. The results were as follows:”

For the next experiment, the system named is E coli. The class given is cell-based, Escherichia coli.
[1] abbreviates: read-out: MIC of triclosan for resistant mutants.

SMILES strings stand for the structures. Like-named read-outs stand apart in the source and are kept apart here.

Excerpt for E coli: A suitable method is the serial plate transfer test (SPTT) (Bayston R. Grove N, Siegel J, Lawellin D, Barsham S. Prevention of hydrocephalus shunt catheter colonisation in vitro by impregnation with antimicrobials. J Neurol Neurosurg Psychiatr 1989, 52: 605-689) which allows for a portion of an antimicrobial material, typically a catheter segment of approximately 5 mm length, to be placed on the surface of an agar plate seeded with susceptible index bacteria in such a way that the cut ends of the test catheter are not in contact with the eluting surface, by means of a well or other arrangement.
Wound guards (e.g. for protection of catheter or external fixation pin exit sites) in the form of discs of silicone elastomer of 2.5 cm diameter and 3.5 mm thickness were impregnated with either rifampin+clindamycin (A), rifampin+clindamycin+triclosan (B) or triclosan alone (C). […] After overnight incubation, inhibition zones were measured and the discs were transferred to a further seeded plate, and this process repeated until no zones were seen. Any bacterial colonies growing inside the inhibition zones or under the discs were tested for minimal inhibitory concentration (MIC) to triclosan and their identities with the original inoculum determined by pulse field gel electrophoresis. […]

As a reminder, the MIC is the least concentration at which growth counts as inhibited. As to `Oc1cc(Cl)ccc1Oc1ccc(Cl)cc1Cl` [Triclosan], the MIC was 16 µg/mL in the experiment on E. coli (read-out: MIC of triclosan for inoculum); 250 µg/mL in the experiment with E. coli (setting [1]); 125 µg/mL with S. aureus (setting [1]); 3.75 µg/mL in the experiment with S. aureus (S. aureus original inoculum, read-out: MIC of triclosan for inoculum).
For the compound `CCC[C@@H]1C[C@@H](C(=O)N[C@@H]([C@H]2O[C@H](SC)[C@H](O)[C@@H](O)[C@H]2O)[C@H](C)Cl)N(C)C1` [clindamycin], the “Activity against E. coli” value in the experiment with E coli is given as “no activity”.
Same read-out and setting: the same measure for `CO[C@H]1/C=C/O[C@@]2(C)Oc3c(C)c(O)c4c(O)c(c(/C=N/N5CCN(C)CC5)c(O)c4c3C2=O)NC(=O)/C(C)=C\C=C\[C@H](C)[C@H](O)[C@@H](C)[C@@H](O)[C@@H](C)[C@H](OC(C)=O)[C@@H]1C` [Rifampin, 2-(4-methyl-1-piperazinyl-iminomethyl)-rifamycin SV]: “no activity”.

The values are drawn from US10500388B2 (priority 2005, dated 2019).
